# Columns and labels:
# Type in all cases: cell-based
# [1] = system: human atrial trabeculae; test: Ischemia/reperfusion of suprafused human atrial trabeculae: postischemic developed force; settings: N=7, I/R alone 35%
# Experimental: (§1) Isolated Atrial Trabeculae Patients undergoing elective coronary artery bypass surgery with a pump oxygenator require insertion of a canula into the right atrium. At that time, a small segment of the right atrial appendage is routinely excised and discarded. Trabeculae were obtained from this discarded tissue. Human atrial tissue was placed in oxygenated modified Tyrode's buffer solution at 4° C. Modified Tyrode's solution was prepared daily with deionized distilled water and contained D-glucose at 5.0 mmol/liter, CaCl2 at 2.0 mmol/liter, NaCl at 118.0 mmol/liter, KCl at 4.0 mmol/liter, MgSO4.7H2O at 1.2 mmol/liter, NaHCO3 at 25.0 mmol/liter, and NaH2PO4 at 1.2 mmol/liter. […]
# Experimental Design Trabeculae were equilibrated for 90 min to increase the baseline stretch force to 1,000 mg and to allow stabilization of developed force. […] Contractions were monitored by force transducers (Grass FT03) and recorded with a computerized preamplifier and digitizer (MacLab Quad Bridge, MacLab/8e, AD Instruments, Milford, Mass.) and continuously monitored with a Macintosh computer. […]
# Statisical Analysis Data are expressed as the mean±SEM. Mean changes in developed force were calculated relative to the control value at 90 min for each patient's tissue. Statistical significance of differences between groups were determined by factorial ANOVA with Bonferroni-Dunn post hoc analysis. […]
# [2] = system: human peripheral blood mononuclear cells; test: Endotoxin-induced secretion of mature IL-1β by peripheral blood mononuclear cells (ELISA)
# Experimental: Reagents IL-18BPa isoform was expressed with a N-terminal (His)6 tag in Chinese hamster ovary cells and purified to homogeneity. The ability of IL-18BPa-(His)6 to neutralize IL-18 has been described (Kim et al., 2000). The ICE inhibitor (ICEi) Ac-Try-Val-Ala-Asp-chloromethylketone (YVAD) was purchased from Alexis Biochemicals (San Diego) and solubililized in DMSO at 10 mg/ml. The ICEi was diluted in Tyrode's solution before being used. On human peripheral blood mononuclear cells, the ICEi reduces endotoxin-induced secretion of mature IL-1β by 92%, as measured by ELISA (Cistron Biotechnology, Pine Brook, NJ).
# [3] = system: human atrial trabeculae; test: Developed force of human atrial trabeculae exposed to exogenous IL-18 under normoxic conditions
# Experimental: Mature IL-18 (100 ng/ml) were added to atrial trabeculae throughout the 90 min experimental period. The vertical axis indicates the mean percent change from baseline developed force. The baseline was determined at the end of the equilibration period (not shown). (n=6). *P<0.05, **P<0.001 as compared to control at the same interval and for the remainder of the experimental period.
# Isolated Atrial Trabeculae Patients undergoing elective coronary artery bypass surgery with a pump oxygenator require insertion of a canula into the right atrium. At that time, a small segment of the right atrial appendage is routinely excised and discarded. Trabeculae were obtained from this discarded tissue. Human atrial tissue was placed in oxygenated modified Tyrode's buffer solution at 4° C. […]
# (§2) Experimental Design Trabeculae were equilibrated for 90 min to increase the baseline stretch force to 1,000 mg and to allow stabilization of developed force. […] Contractions were monitored by force transducers (Grass FT03) and recorded with a computerized preamplifier and digitizer (MacLab Quad Bridge, MacLab/8e, AD Instruments, Milford, Mass.) and continuously monitored with a Macintosh computer.
# Next, the direct effect of exogenous IL-18 on myocardial contractile function was determined. […]
# [4] = system: human atrial trabeculae; test: Developed force of human atrial trabeculae exposed to exogenous TNFα, with or without IL-18BP; settings: TNFα 1 ng/ml alone; after 90 minutes; n=5
# Experimental: TNFα and IL-18BP were added to each bath change.
# as §1, with “mmol/liter. The substrate-free Tyrode's solution contained choline chloride at 7 mmol/liter to maintain osmolarity. Unless otherwise indicated, chemicals and reagents were obtained from Sigma.” for “mmol/liter.”
# as §2
# [5] = system: human atrial trabeculae; test: Tissue creatine kinase (CK) activity in trabeculae exposed to TNFα, with or without IL-18BP; settings: 90 minutes of TNFα exposure alone; n=6; control 6801±276
# Experimental: CK activity is expressed in units of CK activity per milligram of wet tissue weight. (n=6).
# Preserved Trabecular CK Activity End reperfusion tissue (90 min) CK activity was determined as described (Kaplan et al., 1993). Tissues were homogenized in 100 vol of ice-cold isotonic extraction buffer (Cleveland et al., 1997, Kaplan et al., 1993). The assay was performed with a CK kit (Sigma) by using an automated spectrophotometer. Results are presented as units of CK activity per mg (wet weight of tissue).
# Casases are often associated with apoptosis. To assess cellular viability in trabeculae exposed to TNFα, tissue intracellular creatine kinase (CK) was measured. In this assay, high CK levels indicate viable cells. As depicted in FIG. 8, control trabeculae which underwent 90 minutes of normoxic superfusion, contained 6801±276 units of CK activity per milligram of wet tissue weight. […] Trabeculae exposed to TNFα in the presence of IL-18BP contained 5605±212 units/mg of tissue. […] This was an unexpected finding since the magnitude of developed force at the end of the experimental period was similar for I/R and TNFα.
substance,measurement,setting,value
Ac-Try-Val-Ala-Asp-chloromethylketone [ICEi],"postischemic contractile function, percent of control",[1]; ICEi 10 μg/ml,60%
same,"postischemic contractile function, percent of control",[1]; ICEi 20 μg/ml,75.8%
same,reduction of endotoxin-induced secretion of mature IL-1β,[2],92%
IL-18: exogenous mature IL-18 added to atrial trabeculae,decrease in developed force,"[3]; IL-18 100 ng/ml, 90 minutes continuous exposure, normoxic, n=6",42%
same,potency as myocardial depressant compared with TNFα,[3]; human atrial trabeculae,not as potent a myocardial depressant as is TNFα
TNFα,decrease in developed force compared to control,[4],58%
same,preserved tissue CK activity,[5],3246±217 units/mg

# From patent publication US20040234523A1, “Use of IL-18 inhibitors for the treatment and/or prevention of heart disease” (priority 2001, published 2004)
